Series [1] relates to glioblastoma brain cancer cell line LN-229. Kind of series: Cytotoxicity assay (CCK8 viability). As to conditions: Homo sapiens, cytotoxicity against LN-229 cells, 18 hours incubation. In kind it is cell-based. As to the method:
Cytoxocity assay: Cells were seeded on a 96 well polystyrene plate in full serum media at a density of 75,000 cells per milliliter, 100 μL per well. Plates were incubated at 37° C. and 5% CO2 for 24 hours to allow cell attachment. Drug solutions were prepared in DMSO at 100× concentration and mixed 1:100 in 1% FBS media to yield the desired concentration. Drug-media mixtures were vortexed immediately prior to administration to cells. Full serum media was removed and replaced with drug-media mixtures and incubated for 18 hours. 10 μL of Cell Counting Kit 8 (CCK8, Dojindo# CK04-11) was added to each well to colormetrically assess viability. After 2-4 hours of incubation with the CCK8 dye, absorbance was read at 450 nm by a BioTek Synergy 2 plate reader.
The cytotoxicity of selected compounds against the glioblastoma brain cancer cell line LN-229 is depicted in Table 1.

As for `Oc1nc(Cc2ccccc2)nc(O)c1-c1ccccc1`, the melting point (commonly the temperature of the solid-liquid transition) was 336.6 °C.

For the molecule `CC(C)(c1nc(O)c(-c2cc(Cl)cc(Cl)c2)c(O)n1)C1CCCCC1` [Compound 8g, 2-(2-Cyclohexylpropan-2-yl)-5-(3,5-dichlorophenyl)pyrimidine-4,6-diol], the EC50 (as a rule, the concentration at which the effect is half-maximal) in series [1] amounted to 23.5 µM.

With `CC(C)(c1ccccc1)c1nc(O)c(-c2cc(Cl)cc(Cl)c2)c(O)n1` [Compound 8h, 5-(3,5-Dichlorophenyl)-2-(2-phenylpropan-2-yl)pyrimidine-4,6-diol], the EC50 in series [1] worked out at 51.8 µM.

Regarding `CCCCCCC(C)(C)c1nc(O)c(-c2cccc(C)c2)c(O)n1` [Compound 8j, 2-(2-Methyloctan-2-yl)-5-m-tolylpyrimidine-4,6-diol], the concentration for a half-maximal effect (EC50) in series [1] came out at 55.4 µM.

(Values after patent US8389534B2, “Pyrimidine non-classical cannabinoid compounds and related methods of use” (The University of Tennessee Research Foundation, priority 2008, dated 2013).)
